Laboratory results published in patent US10548829B2, “Oral care compositions and methods of use” (priority 2016, dated 2020).

Test system: HaCaT cells
Assay: Scratch assay, cell migration/proliferation "wound healing"
Format: cell-based, human
Settings: 0.1 mM in 1% DMSO complete media
Description: Cell Culture: Spontaneously immortalized human keratinocyte line, HaCaT cells (AddexBio, San Diego, Calif., cat # T0020001) were cultured in 25 cm^2 vented, Falcon canted tissue culture flasks (VWR, Radnor, Pa., cat #353108) using complete DMEM media (Life Technologies, Grand Island, N.Y., cat #11965-092) supplemented with 10% characterized Hyclone FBS (VWR, Radnor, Pa., cat #1677-014) and 1× Penicillin—Streptomycin (Life Technologies, Grand Island, N.Y., cat #15140122). The cultures were incubated at 37° C. and 5% CO2 until the cells reached around 70-80% confluence. […]
Assay sample preparation: Samples were prepared in a final concentration of 1% DMSO in complete media. […] Two different batches of product 5 were tested at 0.15 mM, the average % Growth Relative to day 0 (d0) was determined and presented in FIG. 20. […]
Quantifying cell migration/wound healing: To explore the effects of various actives on cell migration/wound healing, the size of the freshly generated wound (the gap size) was determined following treatment using an inverted microscope (Olympus 1X71, Olympus Scientific Solutions Americas, Waltham, Mass.) and Cellsens Dimension 1.11 (Olympus Corporation, Waltham, Mass.) software and monitored until the gap closed completely. […] The mean of each arm was determined for each day of the study until the wound heal and no gap existed. […]

Structure (SMILES): C[C@@H]1O[C@@H](O[C@H]2[C@H](Oc3cc(O)c4c(c3)O[C@H](c3ccc(O)cc3)CC4=O)O[C@H](CO)[C@@H](O)[C@@H]2O)[C@H](O)[C@H](O)[C@H]1O [Naringin]
- wound healing, % growth relative to d0 (in words): not significantly different from that of Zinc acetate
